Laboratory results: ChEMBL document CHEMBL1201862, “PubChem BioAssay data set” (2004)
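These data come from cells grown in 96-well plates and exposed to compound for 48 hours at five concentrations. GI50: concentration for 50% inhibition of growth.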 Calls of active or inactive are those of the source. Cut-off read from the data, not from the text of the source: active = GI50 up to about 1.1 µM and inactive = higher.

Tests used:
Assay in all cases: NCI tumour cell line growth inhibition, 48 h
786-0 = test system: 786-0
A498 = test system: A498
A549 = test system: A549
ACHN = test system: ACHN
BT-549 = test system: BT-549
CAKI-1 = test system: CAKI-1
CCRF-CEM = test system: CCRF-CEM
COLO 205 = test system: COLO 205
DLD-1 = test system: DLD-1
DMS-114 = test system: DMS-114
DMS-273 = test system: DMS-273
DU-145 = test system: DU-145
EKVX = test system: EKVX
HCC 2998 = test system: HCC 2998
HCT-116 = test system: HCT-116
HCT-15 = test system: HCT-15
HL-60 = test system: HL-60
HOP-18 = test system: HOP-18
HOP-62 = test system: HOP-62
HOP-92 = test system: HOP-92
HT-29 = test system: HT-29
Hs-578T = test system: Hs-578T
IGROV-1 = test system: IGROV-1
K562 = test system: K562
KM-20L2 = test system: KM-20L2
KM12 = test system: KM12
LOX IMVI = test system: LOX IMVI
LXFL 529 = test system: LXFL 529
M14 = test system: M14
M19-MEL = test system: M19-MEL
MCF7 = test system: MCF7
MDA-MB-231 = test system: MDA-MB-231
MDA-MB-435 = test system: MDA-MB-435
MDA-N = test system: MDA-N
MOLT-4 = test system: MOLT-4
Malme-3M = test system: Malme-3M
NCI-H226 = test system: NCI-H226
NCI-H23 = test system: NCI-H23
NCI-H460 = test system: NCI-H460
NCI-H522 = test system: NCI-H522
NCI/ADR-RES = test system: NCI/ADR-RES
OVCAR-3 = test system: OVCAR-3
OVCAR-4 = test system: OVCAR-4
OVCAR-5 = test system: OVCAR-5
OVCAR-8 = test system: OVCAR-8
PC-3 = test system: PC-3
RPMI-8226 = test system: RPMI-8226
RXF 393 = test system: RXF 393
RXF 631 = test system: RXF 631
SF-268 = test system: SF-268
SF-295 = test system: SF-295
SF-539 = test system: SF-539
SK-MEL-28 = test system: SK-MEL-28
SK-MEL-2 = test system: SK-MEL-2
SK-MEL-5 = test system: SK-MEL-5
SK-OV-3 = test system: SK-OV-3
SN12C = test system: SN12C
SNB-19 = test system: SNB-19
SNB-75 = test system: SNB-75
SNB-78 = test system: SNB-78
SR = test system: SR
SW-620 = test system: SW-620
T47D = test system: T47D
TK-10 = test system: TK-10
U-251 = test system: U-251
UACC-257 = test system: UACC-257
UACC-62 = test system: UACC-62
UO-31 = test system: UO-31
XF498 = test system: XF498

Structure (SMILES): CCN(CC)CCCNc1ccc2nnn3c4ccc(O)cc4c(=O)c1c23
- GI50 (786-0): 5.71 µM (inactive)
- GI50 (A498): 8.97 µM (inactive)
- GI50 (A549): 1.58 µM (inactive)
- GI50 (ACHN): 3.34 µM (inactive)
- GI50 (BT-549): 14 µM (inactive)
- GI50 (CAKI-1): 4.08 µM (inactive)
- GI50 (CCRF-CEM): 2.29 µM (inactive)
- GI50 (COLO 205): 2.81 µM (inactive)
- GI50 (DLD-1): 3.48 µM (inactive)
- GI50 (DMS-114): 11.7 µM (inactive)
- GI50 (DMS-273): 3.44 µM (inactive)
- GI50 (DU-145): 11.9 µM (inactive)
- GI50 (EKVX): 16.1 µM (inactive)
- GI50 (HCC 2998): 9.06 µM (inactive)
- GI50 (HCT-116): 1.15 µM (inactive)
- GI50 (HCT-15): 5.06 µM
- GI50 (HL-60): 5.55 µM (inactive)
- GI50 (HOP-18): 14.3 µM (inactive)
- GI50 (HOP-62): 10.7 µM (inactive)
- GI50 (HOP-92): 14.6 µM (inactive)
- GI50 (HT-29): 2.65 µM (inactive)
- GI50 (Hs-578T): 14.4 µM (inactive)
- GI50 (IGROV-1): 4.86 µM (inactive)
- GI50 (K562): 7.23 µM (inactive)
- GI50 (KM-20L2): 5.3 µM (inactive)
- GI50 (KM12): 6.61 µM (inactive)
- GI50 (LOX IMVI): 2.9 µM (inactive)
- GI50 (LXFL 529): 7.67 µM (inactive)
- GI50 (M14): 9.27 µM (inactive)
- GI50 (M19-MEL): 13.8 µM (inactive)
- GI50 (MCF7): 14 µM (inactive)
- GI50 (MDA-MB-231): 7.74 µM (inactive)
- GI50 (MDA-MB-435): 10.2 µM (inactive)
- GI50 (MDA-N): 8.71 µM (inactive)
- GI50 (MOLT-4): 0.385 µM (active)
- GI50 (Malme-3M): 13.1 µM (inactive)
- GI50 (NCI-H226): 6.87 µM (inactive)
- GI50 (NCI-H23): 11.2 µM (inactive)
- GI50 (NCI-H460): 0.653 µM (active)
- GI50 (NCI-H522): 3.05 µM (inactive)
- GI50 (NCI/ADR-RES): 7.14 µM (inactive)
- GI50 (OVCAR-3): 11.4 µM (inactive)
- GI50 (OVCAR-4): 6.35 µM (inactive)
- GI50 (OVCAR-5): 13.8 µM (inactive)
- GI50 (OVCAR-8): 2.97 µM (inactive)
- GI50 (PC-3): 6.5 µM (inactive)
- GI50 (RPMI-8226): 3.28 µM (inactive)
- GI50 (RXF 393): 1.64 µM (inactive)
- GI50 (RXF 631): 1.88 µM (inactive)
- GI50 (SF-268): 5.3 µM (inactive)
- GI50 (SF-295): 9.51 µM (inactive)
- GI50 (SF-539): 10.3 µM (inactive)
- GI50 (SK-MEL-28): 18 µM (inactive)
- GI50 (SK-MEL-2): 15.1 µM (inactive)
- GI50 (SK-MEL-5): 7.55 µM (inactive)
- GI50 (SK-OV-3): 8.87 µM (inactive)
- GI50 (SN12C): 5.57 µM (inactive)
- GI50 (SNB-19): 10.1 µM (inactive)
- GI50 (SNB-75): 7.48 µM (inactive)
- GI50 (SNB-78): 16.4 µM (inactive)
- GI50 (SR): 1.69 µM (inactive)
- GI50 (SW-620): 2.69 µM (inactive)
- GI50 (T47D): 22.3 µM (inactive)
- GI50 (TK-10): 3.28 µM (inactive)
- GI50 (U-251): 2.33 µM (inactive)
- GI50 (UACC-257): 17.9 µM (inactive)
- GI50 (UACC-62): 16.6 µM (inactive)
- GI50 (UO-31): 0.968 µM (active)
- GI50 (XF498): 15.5 µM (inactive)
